Here are results for 13 compounds from patent publication US10981926B2 (Janssen Pharmaceutica NV, priority 2016, dated 2021).

Assay type in all cases: cell-based
For assay [1], the target named is T1, wild-type Androgen Receptor (AR-wt) (Homo sapiens (Human), UniProt P10275). Description: LNCaP-AR-wt ANT reporter assay (antagonist mode). The note with it: for LNCaP-AR-wt ANT pIC50 / IC50: antagonist mode, pIC50 = −Log10(IC50 in Molar); for Emax: maximum % inhibition of R1881 control response over the tested concentration range, read-out: LNCaP-AR-wt ANT MAX % Inh; for IC50: read-out: LNCaP-AR-wt ANT pIC50 (converted).

The target in assay [2] is T1, wild-type Androgen Receptor (AR-wt). In words: LNCaP-AR-wt AG reporter assay (agonist mode). The note with it: for LNCaP-AR-wt AG pEC50 / EC50: agonist mode, pEC50 = −Log10(EC50 in Molar); for Emax: maximum % stimulation (agonist response) over the tested concentration range, read-out: LNCaP-AR-wt AG MAX % Stim; for EC50: read-out: LNCaP-AR-wt AG pEC50 (converted). In general terms: Reporter assays use an easily measured gene product as a stand-in for the process of interest.

The target in assay [3] is T2, F876L mutant Androgen Receptor (AR-F876L) (Homo sapiens (Human), UniProt P10275, F877L). In words: LNCaP-AR-F876L ANT reporter assay (antagonist mode). The note with it: for LNCaP-AR-F876L ANT pIC50 / IC50: antagonist mode, pIC50 = −Log10(IC50 in Molar); for Emax: maximum % inhibition of R1881 control response over the tested concentration range, read-out: LNCaP-AR-F876L ANT MAX % Inh; for IC50: read-out: LNCaP-AR-F876L ANT pIC50 (converted).

Assay [4] addresses T2, F876L mutant Androgen Receptor (AR-F876L). Description: LNCaP-AR-F876L AG reporter assay (agonist mode). The note with it: for LNCaP-AR-F876L AG pEC50 / EC50: agonist mode, pEC50 = −Log10(EC50 in Molar); for Emax: maximum % stimulation (agonist response) over the tested concentration range, read-out: LNCaP-AR-F876L AG MAX % Stim; for EC50: read-out: LNCaP-AR-F876L AG pEC50 (converted).

T1 sequence (P10275 whole entry): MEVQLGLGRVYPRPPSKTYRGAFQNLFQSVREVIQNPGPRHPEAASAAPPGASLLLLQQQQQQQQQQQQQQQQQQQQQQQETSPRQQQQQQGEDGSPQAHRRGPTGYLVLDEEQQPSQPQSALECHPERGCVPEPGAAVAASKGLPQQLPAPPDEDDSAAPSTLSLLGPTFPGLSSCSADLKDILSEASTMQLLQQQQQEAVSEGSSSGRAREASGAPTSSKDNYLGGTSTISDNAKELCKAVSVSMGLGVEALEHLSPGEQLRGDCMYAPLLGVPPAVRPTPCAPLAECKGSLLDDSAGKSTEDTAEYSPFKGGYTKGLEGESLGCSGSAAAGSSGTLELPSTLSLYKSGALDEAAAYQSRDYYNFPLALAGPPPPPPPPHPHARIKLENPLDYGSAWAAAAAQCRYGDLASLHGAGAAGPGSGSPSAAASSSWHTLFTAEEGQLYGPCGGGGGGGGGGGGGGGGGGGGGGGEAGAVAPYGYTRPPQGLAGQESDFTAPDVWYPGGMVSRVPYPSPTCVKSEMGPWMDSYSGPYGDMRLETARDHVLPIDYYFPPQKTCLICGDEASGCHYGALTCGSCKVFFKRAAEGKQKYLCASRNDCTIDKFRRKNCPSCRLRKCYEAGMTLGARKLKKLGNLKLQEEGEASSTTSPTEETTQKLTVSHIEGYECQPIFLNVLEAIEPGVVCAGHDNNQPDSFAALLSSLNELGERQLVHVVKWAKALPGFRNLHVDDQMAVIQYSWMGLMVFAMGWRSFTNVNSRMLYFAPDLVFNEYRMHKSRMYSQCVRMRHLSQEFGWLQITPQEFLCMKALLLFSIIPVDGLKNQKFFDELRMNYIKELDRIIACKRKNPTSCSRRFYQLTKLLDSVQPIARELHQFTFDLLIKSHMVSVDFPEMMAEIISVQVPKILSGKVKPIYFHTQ
T2 sequence (P10275 whole entry F877L): as the sequence (P10275 whole entry) above, with F877L counted along it

Consider `CC(C)(C)OC(=O)N1C2CCC1CC(c1ccc(N3C(=S)N(c4cnc(C#N)c(C(F)(F)F)c4)C(=O)C34CCC4)cc1)C2` (centres unmarked) [Cpd 113, tert-butyl 3-[4-[6-[6-cyano-5-(trifluoromethyl)-3-pyridyl]-5-oxo-7-thioxo-6,8-diazaspiro[3.4]octan-8-yl]phenyl]-8-azabicyclo[3.2.1]octane-8-carboxylate], for which, in assay [1], the “LNCaP-AR-wt ANT pIC50” value is reported as 6.35 and the Emax is 89%. For the same compound, in assay [2], the “LNCaP-AR-wt AG pEC50” value is listed as <4.82 and the Emax is 0.3%. Besides, in assay [3], the “LNCaP-AR-F876L ANT pIC50” value was determined as 6.26 and the Emax amounted to 83.6%. Further, in assay [4], the “LNCaP-AR-F876L AG pEC50” value is on record as <4.82 and the Emax stood at 1.8%.

With `CN1C2CCC1CC(c1ccc(N3C(=S)N(c4cnc(C#N)c(C(F)(F)F)c4)C(=O)C34CCC4)cc1)C2` (centres unmarked) [Cpd 114, 5-(5-(4-(8-methyl-8-azabicyclo[3.2.1]octan-3-yl)phenyl)-8-oxo-6-thioxo-5,7-diazaspiro[3.4]octan-7-yl)-3-(trifluoromethyl)picolinonitrile], the values for the IC50 in assay [1] and in assay [3] were 2690 nM and 1020 nM, respectively. The Emax is 102% in assay [1], -0.1% in assay [2], 101% in assay [3] and 0.3% in assay [4]. The EC50 in assay [2] and in assay [4] was > 15100 nM in each case.

Take `N#Cc1ncc(N2C(=O)C3(CCC3)N(c3ccc(C4=CC5CCC(C4)N5)cc3)C2=S)cc1C(F)(F)F` (centres unmarked) [Cpd 116, 5-[8-[4-(8-azabicyclo[3.2.1]oct-3-en-3-yl)phenyl]-5-oxo-7-thioxo-6,8-diazaspiro[3.4]octan-6-yl]-3-(trifluoromethyl)pyridine-2-carbonitrile]: in assay [1], the “LNCaP-AR-wt ANT pIC50” value turned out to be 5.96 and the Emax was found to be 102%. In addition, in assay [2], the “LNCaP-AR-wt AG pEC50” value is on record as <4.82 and the Emax was determined as 0.5%. Besides, in assay [3], the “LNCaP-AR-F876L ANT pIC50” value is 6.01 and the Emax came to 102%. In addition, in assay [4], the “LNCaP-AR-F876L AG pEC50” value is reported as <4.82 and the Emax stood at 0.8%.

Take `C#CCN1CC(Oc2ccc(N3C(=S)N(c4cnc(C#N)c(C(F)(F)F)c4)C(=O)C34CCC4)cc2)C1` [Cpd 117, 5-(8-oxo-5-(4-((1-(prop-2-yn-1-yl)azetidin-3-yl)oxy)phenyl)-6-thioxo-5,7-diazaspiro[3.4]octan-7-yl)-3-(trifluoromethyl)picolinonitrile]: the IC50 is 97.7 nM in assay [1] and 112 nM in assay [3]. Besides, the Emax was determined as 102% in assay [1], 0% in assay [2], 99.4% in assay [3] and 0.9% in assay [4]. The EC50 in assay [2] and in assay [4] was > 15100 nM in each case.

For `CC(C)(C)OC(=O)N1CCc2cc(N3C(=S)N(c4cnc(C#N)c(C(F)(F)F)c4)C(=O)C34CCC4)ccc2C1` [Cpd 118, tert-butyl 6-[6-[6-cyano-5-(trifluoromethyl)-3-pyridyl]-5-oxo-7-thioxo-6,8-diazaspiro[3.4]octan-8-yl]-3,4-dihydro-1H-isoquinoline-2-carboxylate], the IC50 in assay [1] is 490 nM; in assay [3] it was 676 nM. Moreover, the Emax worked out at 101% in assay [1], 0.1% in assay [2], 93.7% in assay [3] and 0.8% in assay [4]. Further, the EC50 in assay [2] and in assay [4] was > 15100 nM in each case.

With `CC(=O)N1CCc2cc(N3C(=S)N(c4cnc(C#N)c(C(F)(F)F)c4)C(=O)C34CCC4)ccc2C1` [Cpd 120, 5-(5-(2-acetyl-1,2,3,4-tetrahydroisoquinolin-6-yl)-8-oxo-6-thioxo-5,7-diazaspiro[3.4]octan-7-yl)-3-(trifluoromethyl)picolinonitrile], the IC50 is 200 nM in assay [1] and 339 nM in assay [3]. Also, the Emax in assay [1] was found to be 100%; in assay [2], 0.2%; in assay [3] it was 101%; in assay [4] it was 1.1%. The EC50 in assay [2] and in assay [4] was > 15100 nM in each case.

Regarding `CC(C)(C)OC(=O)N1CCC(n2cc3cc(N4C(=S)N(c5cnc(C#N)c(C(F)(F)F)c5)C(=O)C45CCC5)ccc3n2)CC1` [Cpd 121, tert-butyl 4-[5-[6-[6-cyano-5-(trifluoromethyl)-3-pyridyl]-5-oxo-7-thioxo-6,8-diazaspiro[3.4]octan-8-yl]indazol-2-yl]piperidine-1-carboxylate], the IC50 was 138 nM in assay [1] and 129 nM in assay [3]. Besides, the Emax in assay [1] is 97.9%; in assay [2] it was -0.1%; in assay [3], 99.8%; in assay [4], 0.5%. Also, the EC50 in assay [2] and in assay [4] was > 15100 nM throughout.

As to `CC(C)(C)OC(=O)N1CCC(Cn2cc3cc(N4C(=S)N(c5cnc(C#N)c(C(F)(F)F)c5)C(=O)C45CCC5)ccc3n2)CC1` [Cpd 122, tert-Butyl 4-[[5-[6-[6-cyano-5-(trifluoromethyl)-3-pyridyl]-5-oxo-7-thioxo-6,8-diazaspiro[3.4]octan-8-yl]indazol-2-yl]methyl]piperidine-1-carboxylate], the IC50 in assay [1] and in assay [3] was 282 nM in each case. The Emax in assay [1] came to 98%; in assay [2] it was 0.3%; in assay [3] it was 96.4%; in assay [4], 0.7%. Further, the EC50 in assay [2] and in assay [4] was > 15100 nM throughout.

On to `N#Cc1ncc(N2C(=O)C3(CCC3)N(c3ccc(C4CC5CCC(C4)N5)cc3)C2=S)cc1C(F)(F)F` (centres unmarked) [Cpd 123, 5-(5-(4-(8-azabicyclo[3.2.1]octan-3-yl)phenyl)-8-oxo-6-thioxo-5,7-diazaspiro[3.4]octan-7-yl)-3-(trifluoromethyl)picolinonitrile], for which, in assay [1], the “LNCaP-AR-wt ANT pIC50” value is recorded as 5.64 and the Emax turned out to be 103%. Moreover, in assay [2], the “LNCaP-AR-wt AG pEC50” value is given as <4.82 and the Emax was determined as 0.3%. For the same compound, in assay [3], the “LNCaP-AR-F876L ANT pIC50” value is given as 6.03 and the Emax turned out to be 102%. For the same compound, in assay [4], the “LNCaP-AR-F876L AG pEC50” value was <4.82 and the Emax is 0.2%.

With `CC(=O)N1CCC(Cn2ncc3cc(N4C(=S)N(c5cnc(C#N)c(C(F)(F)F)c5)C(=O)C45CCC5)ccc32)CC1` [Cpd 124, 5-[8-[1-[(1-acetyl-4-piperidyl)methyl]indazol-5-yl]-5-oxo-7-thioxo-6,8-diazaspiro[3.4]octan-6-yl]-3-(trifluoromethyl)pyridine-2-carbonitrile], the IC50 was 115 nM in assay [1] and 39.8 nM in assay [3]. In addition, the Emax amounted to 103% in assay [1], 0.3% in assay [2], 103% in assay [3] and 0.5% in assay [4]. Further, the EC50 in assay [2] and in assay [4] was > 15100 nM each time.

Turning to `CN1CCc2cc(N3C(=S)N(c4cnc(C#N)c(C(F)(F)F)c4)C(=O)C34CCC4)ccc2C1` [Cpd 125, 5-[8-(2-methyl-3,4-dihydro-1H-isoquinolin-6-yl)-5-oxo-7-thioxo-6,8-diazaspiro[3.4]octan-6-yl]-3-(trifluoromethyl)pyridine-2-carbonitrile], the IC50 was 2690 nM in assay [1] and 1580 nM in assay [3]. Also, the Emax turned out to be 99.5% in assay [1], 0.6% in assay [2], 98.1% in assay [3] and 0% in assay [4]. Also, the EC50 in assay [2] and in assay [4] was > 15100 nM each time.

As to `N#Cc1ncc(N2C(=O)C3(CCC3)N(c3ccc4nn(CC5CCNCC5)cc4c3)C2=S)cc1C(F)(F)F` [Cpd 126, 5-[5-oxo-8-[2-(4-piperidylmethyl)indazol-5-yl]-7-thioxo-6,8-diazaspiro[3.4]octan-6-yl]-3-(trifluoromethyl)pyridine-2-carbonitrile], the IC50 was 275 nM in assay [1] and 204 nM in assay [3]. In addition, the Emax in assay [1] worked out at 101%; in assay [2], 0.2%; in assay [3], 100%; in assay [4], 0.8%. Besides, the EC50 in assay [2] and in assay [4] was > 15100 nM each time.

With `CN1C2C=C(c3ccc(N4C(=S)N(c5cnc(C#N)c(C(F)(F)F)c5)C(=O)C45CCC5)cc3)CC1CC2` (centres unmarked) [Cpd 127, 5-[8-[4-(8-methyl-8-azabicyclo[3.2.1]oct-3-en-3-yl)phenyl]-5-oxo-7-thioxo-6,8-diazaspiro[3.4]octan-6-yl]-3-(trifluoromethyl)pyridine-2-carbonitrile], in assay [1], the “LNCaP-AR-wt ANT pIC50” value was 6.23 and the Emax came to 102%. In addition, in assay [2], the “LNCaP-AR-wt AG pEC50” value is <4.82 and the Emax amounted to 0.5%. In assay [3], the “LNCaP-AR-F876L ANT pIC50” value is given as 6.37 and the Emax amounted to 102%. Further, in assay [4], the “LNCaP-AR-F876L AG pEC50” value is given as <4.82 and the Emax came out at 0.4%.
